Measured values: PubChem BioAssay AID206 (DTP/NCI, 2004)
Records with an inconclusive call do not appear.

System: nude mice, HT29 intrarenal xenograft, tumor weight T/C
Assay: NCI In Vivo Anticancer Drug Screen. Data for tumor model HT29;CX-1 Human Adenocarcinoma (MER+) (intrarenal inoculation) in NU/NU Swiss (nude) mice
Conditions: endpoint: mean tumor weight change, higher = larger tumour
Protocol: The antitumor activity of compounds was measured in mice bearing transplantable tumors. Survival or tumor size were measured and the results are expressed as the measurement made in the treated group (T) divided by the measurement made in the vehicle treated control group (C). The tumor model used in this assay is HT29;CX-1 Human Adenocarcinoma (MER+) (intrarenal inoculation) in NU/NU Swiss (nude) mice

[1] = dose: 25.0 mg/kg/injection, schedule: Q01DX010 (sc), vehicle: saline
[2] = dose: 50.0 mg/kg/injection, schedule: Q01DX010 (sc), vehicle: saline
[3] = dose: 100.0 mg/kg/injection, schedule: Q04DX004 (sc), vehicle: suspension in saline
[4] = dose: 200.0 mg/kg/injection, schedule: Q04DX004 (sc), vehicle: suspension in saline
[5] = dose: 100.0 mg/kg/injection, schedule: Q01DX010 (sc), vehicle: saline with Tween-80
[6] = dose: 100.0 mg/kg/injection, schedule: Q04DX004 (sc), vehicle: saline with Tween-80
[7] = dose: 200.0 mg/kg/injection, schedule: Q04DX004 (sc), vehicle: saline with Tween-80
[8] = dose: 400.0 mg/kg/injection, schedule: Q04DX004 (sc), vehicle: saline with Tween-80
[9] = dose: 800.0 mg/kg/injection, schedule: Q04DX004 (sc), vehicle: saline with Tween-80
[10] = dose: 300.0 mg/kg/injection, schedule: Q04DX004 (sc), vehicle: saline with Tween-80
[11] = dose: 150.0 mg/kg/injection, schedule: Q04DX004 (sc), vehicle: Klucel (hydroxypropylcellulose) (HPC)

CNC(=O)ON(C(C)=O)C(=O)NC
T/C [1]: 75 % of control
T/C [2]: 109 % of control
T/C (dose: 50.0 mg/kg/injection, schedule: Q04DX004 (sc), vehicle: saline): 34 % of control
T/C (dose: 100.0 mg/kg/injection, schedule: Q01DX010 (sc), vehicle: saline): 13 % of control
T/C [3]: 116 % of control
T/C (dose: 150.0 mg/kg/injection, schedule: Q04DX004 (sc), vehicle: suspension in saline): 114 % of control
T/C [4]: 57 % of control
T/C (dose: 250.0 mg/kg/injection, schedule: Q04DX004 (sc), vehicle: suspension in saline): 18 % of control

COC1CC(CC2CCC(C)C(C(C)C(=O)O)O2)OC2(OC(C)(C3CCC(C)(C4OC(C5OC(O)(CO)C(C)CC5C)CC4C)O3)CC2C)C1C (stereo not given)
T/C (dose: 3.75 mg/kg/injection, schedule: Q04DX004 (sc), vehicle: Klucel (hydroxypropylcellulose) (HPC)): 34 % of control
T/C (dose: 7.5 mg/kg/injection, schedule: Q04DX004 (sc), vehicle: Klucel (hydroxypropylcellulose) (HPC)): 107 % of control

CC1(C)OC(=O)N(CO)C1=O
T/C [1]: 95 % of control
T/C [2]: 118 % of control
T/C (dose: 200.0 mg/kg/injection, schedule: Q01DX010 (sc), vehicle: saline): 194 % of control

N=C(N)SCc1c2ccccc2c(CSC(=N)N)c2ccccc12
T/C (dose: 25.0 mg/kg/injection, schedule: Q04DX004 (sc), vehicle: suspension in saline): 69 % of control
T/C (dose: 50.0 mg/kg/injection, schedule: Q04DX004 (sc), vehicle: suspension in saline): 72 % of control
T/C [3]: 52 % of control
T/C [4]: 75 % of control

F[B-](F)(F)F
T/C (dose: 225.0 mg/kg/injection, schedule: Q04DX004 (sc), vehicle: gum acacia): 106 % of control
T/C (dose: 450.0 mg/kg/injection, schedule: Q04DX004 (sc), vehicle: gum acacia): 85 % of control
T/C (dose: 900.0 mg/kg/injection, schedule: Q04DX004 (sc), vehicle: gum acacia): 69 % of control

COc1cc2cc(c1Cl)N(C)C(=O)CC(OC(=O)C(C)C)C1(C)OC1C(C)C1CC(O)(NC(=O)O1)C(OC)/C=C/C=C(C)C2 (stereo not given)
T/C (dose: 12.5 micrograms/kg/injection, schedule: Q04DX004 (sc), vehicle: saline + alcohol): 74 % of control
T/C (dose: 25.0 micrograms/kg/injection, schedule: Q04DX004 (sc), vehicle: saline + alcohol): 155 % of control
T/C (dose: 50.0 micrograms/kg/injection, schedule: Q04DX004 (sc), vehicle: saline + alcohol): 165 % of control
T/C (dose: 100.0 micrograms/kg/injection, schedule: Q04DX004 (sc), vehicle: saline + alcohol): 31 % of control
T/C (dose: 500.0 micrograms/kg/injection, schedule: Q04DX004 (sc), vehicle: saline + alcohol): 5 % of control

Cc1ccccc1SSc1ccccc1C
T/C [5]: 62 % of control
T/C (dose: 200.0 mg/kg/injection, schedule: Q01DX010 (sc), vehicle: saline with Tween-80): 68 % of control

COC1=C(N)C(=O)c2nc(-c3nc(C(=O)O)c(C)c(-c4ccc(OC)c(OC)c4O)c3N)ccc2C1=O
T/C (dose: 0.13 mg/kg/injection, schedule: Q01DX010 (sc), vehicle: saline): -33 % of control
T/C (dose: 0.5 mg/kg/injection, schedule: Q01DX010 (sc), vehicle: saline): -10 % of control

c1cnc2ncncc2n1
T/C (dose: 25.0 mg/kg/injection, schedule: Q01DX010 (sc), vehicle: saline with Tween-80): 62 % of control
T/C (dose: 50.0 mg/kg/injection, schedule: Q01DX010 (sc), vehicle: saline with Tween-80): 70 % of control
T/C [5]: 28 % of control

CCN(Cc1ccc(Cl)c(Cl)c1)c1ccc2nc(N)nc(N)c2c1C
T/C (dose: 9.38 mg/kg/injection, schedule: Q04DX004 (sc), vehicle: distilled water + Tween-80): 44 % of control
T/C (dose: 18.75 mg/kg/injection, schedule: Q04DX004 (sc), vehicle: distilled water + Tween-80): 54 % of control
T/C (dose: 37.5 mg/kg/injection, schedule: Q04DX004 (sc), vehicle: distilled water + Tween-80): 93 % of control
T/C (dose: 75.0 mg/kg/injection, schedule: Q04DX004 (sc), vehicle: distilled water + Tween-80): 47 % of control

O=c1cc(-c2ccccc2)[nH]c2c1CCCC2
T/C [6]: 82 % of control
T/C [7]: 70 % of control
T/C [8]: 67 % of control
T/C (dose: 600.0 mg/kg/injection, schedule: Q04DX004 (sc), vehicle: saline with Tween-80): 37 % of control
T/C [9]: 68 % of control
T/C (dose: 1200.0 mg/kg/injection, schedule: Q04DX004 (sc), vehicle: saline with Tween-80): 58 % of control
T/C (dose: 2400.0 mg/kg/injection, schedule: Q04DX004 (sc), vehicle: saline with Tween-80): 101 % of control

O=C(NO)c1cc(O)c(O)c(O)c1
T/C (dose: 200.0 mg/kg/injection, schedule: Q04DX004 (sc), vehicle: water): 83 % of control
T/C (dose: 400.0 mg/kg/injection, schedule: Q04DX004 (sc), vehicle: water): 60 % of control
T/C (dose: 800.0 mg/kg/injection, schedule: Q04DX004 (sc), vehicle: water): 56 % of control
T/C (dose: 1600.0 mg/kg/injection, schedule: Q04DX004 (sc), vehicle: water): 71 % of control

Nc1cc2[nH]cnc2c(=O)[nH]1
T/C [1]: 62 % of control
T/C [2]: 112 % of control

O=C1C=C[C@H](O)[C@@]2(CO)O[C@@H]12
T/C (dose: 6.25 mg/kg/injection, schedule: Q04DX004 (sc), vehicle: saline with Tween-80): 109 % of control
T/C (dose: 12.5 mg/kg/injection, schedule: Q04DX004 (sc), vehicle: saline with Tween-80): 82 % of control

CC(=O)CC(C)=O.CC(=O)CC(C)=O.O=N[O-].O=N[O-].[Co]
T/C (dose: 75.0 mg/kg/injection, schedule: Q04DX004 (sc), vehicle: saline with Tween-80): 52 % of control
T/C (dose: 150.0 mg/kg/injection, schedule: Q04DX004 (sc), vehicle: saline with Tween-80): 92 % of control
T/C [10]: 48 % of control

Cc1ccc2c(ccc(CC(=S)[S-])[n+]2C)c1
T/C (dose: 50.0 mg/kg/injection, schedule: Q01DX010 (sc), vehicle: Klucel (hydroxypropylcellulose) (HPC)): 96 % of control
T/C (dose: 100.0 mg/kg/injection, schedule: Q01DX010 (sc), vehicle: Klucel (hydroxypropylcellulose) (HPC)): 85 % of control
T/C (dose: 200.0 mg/kg/injection, schedule: Q01DX010 (sc), vehicle: Klucel (hydroxypropylcellulose) (HPC)): 44 % of control
T/C (dose: 400.0 mg/kg/injection, schedule: Q01DX010 (sc), vehicle: Klucel (hydroxypropylcellulose) (HPC)): 67 % of control

CN1CCc2c(c3ccccc3c3ccccc23)C1
T/C [11]: 105 % of control
T/C (dose: 300.0 mg/kg/injection, schedule: Q04DX004 (sc), vehicle: Klucel (hydroxypropylcellulose) (HPC)): 80 % of control
T/C (dose: 600.0 mg/kg/injection, schedule: Q04DX004 (sc), vehicle: Klucel (hydroxypropylcellulose) (HPC)): 111 % of control

Cc1ncc([N+](=O)[O-])n1CCSC(N)=O
T/C [8]: 112 % of control
T/C [9]: 76 % of control
T/C (dose: 1600.0 mg/kg/injection, schedule: Q04DX004 (sc), vehicle: saline with Tween-80): 111 % of control

CN1CCN(c2ccc3nc(-c4ccc5nc(-c6ccc(O)cc6)[nH]c5c4)[nH]c3c2)CC1
T/C (dose: 100.0 mg/kg/injection, schedule: Q04DX004 (sc), vehicle: saline): 35 % of control
T/C (dose: 200.0 mg/kg/injection, schedule: Q04DX004 (sc), vehicle: saline): 61 % of control
T/C (dose: 800.0 mg/kg/injection, schedule: Q04DX004 (sc), vehicle: saline): 56 % of control

Cc1ccc2c(c1)C(=O)N(CC[P+](c1ccccc1)(c1ccccc1)c1ccccc1)C2=O
T/C (dose: 3.13 mg/kg/injection, schedule: Q01DX010 (sc), vehicle: Klucel (hydroxypropylcellulose) (HPC)): 70 % of control
T/C (dose: 6.25 mg/kg/injection, schedule: Q01DX010 (sc), vehicle: Klucel (hydroxypropylcellulose) (HPC)): 37 % of control
T/C (dose: 12.5 mg/kg/injection, schedule: Q01DX010 (sc), vehicle: Klucel (hydroxypropylcellulose) (HPC)): 86 % of control
T/C (dose: 25.0 mg/kg/injection, schedule: Q01DX010 (sc), vehicle: Klucel (hydroxypropylcellulose) (HPC)): 75 % of control

CCN(C)N=Nc1ccc(C(N)=O)cc1
T/C (dose: 75.0 mg/kg/injection, schedule: Q04DX004 (sc), vehicle: Klucel (hydroxypropylcellulose) (HPC)): 92 % of control
T/C [11]: 68 % of control

COc1ccc(S(=O)(=O)N=N/C=C2\C=CC=CN2O)cc1OC
T/C (dose: 18.75 mg/kg/injection, schedule: Q04DX004 (sc), vehicle: saline with Tween-80): 61 % of control
T/C (dose: 37.5 mg/kg/injection, schedule: Q04DX004 (sc), vehicle: saline with Tween-80): 54 % of control
T/C [10]: 55 % of control

CCCCOCN(COCCCC)C(C)Cc1ccccc1 (stereo not given)
T/C [6]: 110 % of control
T/C [7]: 178 % of control
T/C [8]: 98 % of control
T/C [9]: 97 % of control
